Experimental data: ChEMBL document CHEMBL1799932, “Antimalarial pyrido[1,2-a]benzimidazoles” (J Med Chem, 2011)

What was measured:
[1] = Selectivity index, ratio IC50 for rat L6 cells to IC50 for multidrug-resistant Plasmodium falciparum K1 infected in human red blood cells; format: functional
[2] = system: L6; assay: Cytotoxicity at rat L6 cells after 72 hrs by microplate alamar blue assay; format: cell-based
[3] = Distribution coefficient, log D of the compound at pH 7.4; format: physicochemical; settings: octanol/water
[4] = system: Plasmodium falciparum; assay: microbe, parasite or virus in culture; settings: K1
Description: (§1) Antimalarial activity against multidrug-resistant Plasmodium falciparum K1 infected in human red blood cells assessed as 3H-hypoxanthine incorporation after 48 hrs by liquid scintillation counting

[5] = Metabolic stability in mouse liver microsomes assessed as intrinsic clearance per mg protein after 60 mins by LC-MS analysis; format: ADME, Microsome
[6] = Metabolic stability in human liver microsomes assessed as intrinsic clearance per mg protein after 60 mins by LC-MS analysis; format: ADME, Microsome
[7] = Metabolic stability in rat liver microsomes assessed as intrinsic clearance per mg protein after 60 mins by LC-MS analysis; format: ADME, Microsome
[8] = Metabolic stability in human liver microsomes assessed as degradation half life after 60 mins by LC-MS analysis; format: ADME, Microsome
[9] = Metabolic stability in rat liver microsomes assessed as degradation half life after 60 mins by LC-MS analysis; format: ADME, Microsome
[10] = Metabolic stability in mouse liver microsomes assessed as degradation half life after 60 mins by LC-MS analysis; format: ADME, Microsome
[11] = system: Plasmodium berghei; assay: Antimalarial activity against GFP-transfected Plasmodium berghei strain ANKA infected in NMRI mouse assessed as reduction in parasitemia at 50 mg/kg/day, ip administered for 4 consecutive days measured 24 hrs after last treatment by FACS analysis relative to control; format: functional; set-up: scale not given: the % may be the effect or the level left; settings: route intraperitoneal
[12] = system: Plasmodium falciparum
Description: as §1

[13] = system: Plasmodium falciparum; assay: microbe, parasite or virus in culture; settings: NF54
Description: Antimalarial activity against Plasmodium falciparum NF54

[14] = system: Plasmodium falciparum; assay: microbe, parasite or virus in culture; settings: FC27/Papua New Guinea
Description: Antimalarial activity against Plasmodium falciparum FC27

[15] = system: Plasmodium falciparum; assay: microbe, parasite or virus in culture; settings: Mad20/Papua New Guinea
Description: Antimalarial activity against Plasmodium falciparum Mad20

| Compound | Ratio IC50 [1] | IC50 ([2]; Rattus norvegicus, L6, 72 h) [µM] | logD [3] | IC50 [4] [µM] | other results |
| --- | --- | --- | --- | --- | --- |
| CN(C)CCCNc1cc(-c2ccc(Cl)cc2)c(C#N)c2nc3ccccc3n12 | >1000 | > 210 | 2.09 | 0.21 |  |
| CCN(CC)CCCNc1cc(-c2ccc(Cl)cc2)c(C#N)c2nc3ccccc3n12 | 287 | 48.8 | 2.57 | 0.17 |  |
| Cl.N#Cc1c(-c2ccc(C(F)(F)F)cc2)cc(NCCN2CCOCC2)n2c1nc1ccccc12 |  |  |  |  | microsomal CLint [5]: 65.2 µL/min/mg; microsomal CLint [6]: 109 µL/min/mg; microsomal CLint [7]: 108 µL/min/mg; half-life [8]: 15.9 min; half-life [9]: 16 min; half-life [10]: 26.6 min |
| CN(C)CCCNc1cc(-c2cccc(C(F)(F)F)c2)c(C#N)c2nc3ccccc3n12.Cl.Cl |  |  |  |  | IC50 ([2]; l6): 19.2 µM; Activity [11]: 0%; IC50 [12]: 0.49 µM |
| N#Cc1c(-c2ccccc2)cc(NCCCN)n2c1nc1ccccc12 | 5.2 | 11.9 | 0.49 | 2.27 |  |
| N#Cc1c(C(F)(F)F)cc(NCCN)n2c1nc1ccccc12 | 13 | 40.1 | 1.37 | 3.09 |  |
| CCN(CC)CCCNc1cc(-c2cccc(C(F)(F)F)c2)c(C#N)c2nc3ccccc3n12.Cl.Cl |  |  |  |  | IC50 ([2]; l6): 11.8 µM; Activity [11]: 0%; IC50 [12]: 0.25 µM |
| CN(C)CCNc1cc(-c2ccc(F)cc2)c(C#N)c2nc3ccccc3n12 | 70 | 19.6 | 1.41 | 0.28 |  |
| N#Cc1c(-c2ccc(C(F)(F)F)cc2)cc(NCCCN2CCOCC2)n2c1nc1ccccc12 | 80.6 | 98.3 | 3.79 | 1.22 |  |
| N#Cc1c(-c2cccc(C(F)(F)F)c2)cc(NCCN)n2c1nc1ccccc12 | 11.7 | 11.7 | 1.8 | 1 |  |
| OC(c1cc(C(F)(F)F)nc2c(C(F)(F)F)cccc12)C1CCCCN1 (stereo unspecified) [MEFLOQUINE] |  |  |  |  | IC50 [13]: 0.013 µM; IC50 [14]: < 0.04 µM; IC50 [15]: 0.013 µM |
| CN(C)CCCNc1cc(-c2cccc(F)c2)c(C#N)c2nc3ccccc3n12 | 29 | 15.4 | 1.54 | 0.53 |  |
| CN(C)CCNc1cc(-c2cccc(C(F)(F)F)c2)c(C#N)c2nc3ccccc3n12 | 24.6 | 7.14 | 2.45 | 0.29 |  |
| N#Cc1c(-c2ccc(C(F)(F)F)cc2)cc(NCCCN)n2c1nc1ccccc12 | 6.8 | 6.26 | 1.46 | 0.92 |  |
| CCN(CC)CCNc1cc(-c2ccccc2)c(C#N)c2nc3ccccc3n12 | 108 | 120 | 1.89 | 1.11 |  |
| CCN(CC)CCNc1cc(-c2ccc(Cl)cc2)c(C#N)c2nc3ccccc3n12 | 683 | 41 | 2.54 | 0.06 |  |
| CN(C)CCCNc1cc(C(F)(F)F)c(C#N)c2nc3ccccc3n12 | 52.5 | 166 | 2.06 | 3.16 |  |
| N#Cc1c(-c2cccc(C(F)(F)F)c2)cc(NCCCN)n2c1nc1ccccc12 | 6.9 | 4.33 | 1.46 | 0.63 |  |
| N#Cc1c(-c2ccc(C(F)(F)F)cc2)cc(NCCN2CCCCC2)n2c1nc1ccccc12 | 3581 | 193 | 3.78 | 0.054 |  |
| CN(C)CCNc1cc(-c2cccc(F)c2)c(C#N)c2nc3ccccc3n12 | 7 | 5.88 | 1.5 | 0.84 |  |
| CN(C)CCNc1cc(-c2ccc(C(F)(F)F)cc2)c(C#N)c2nc3ccccc3n12.Cl |  |  |  |  | IC50 ([2]; l6): 147 µM; Activity [11]: 0%; IC50 [12]: 0.1 µM |
| CCN(CC)CCNc1cc(-c2cccc(C(F)(F)F)c2)c(C#N)c2nc3ccccc3n12 | 243 | 102 | 2.94 | 0.42 |  |
| COc1cc([C@@H]2c3cc4c(cc3[C@H](O)[C@H]3COC(=O)[C@H]23)OCO4)cc(OC)c1OC [PODOFILOX] |  | 0.009 |  |  |  |
| CCN(CC)CCCNc1cc(-c2ccc(C(F)(F)F)cc2)c(C#N)c2nc3ccccc3n12 | >633 |  | 2.97 | 0.3 | IC50 ([2]; l6): > 190 µM |
